Assay results published in US20130261077A1 (priority 2012, published 2013).

Molecular target: T1, FimH-CRD (Escherichia coli, UniProt P08191)
T1 construct: The first 177 amino acids of the FimH protein; thrombin tag (printed as 'fusion protein with thrombin') (cleaved yes); made in house; host or cells: bacteria (pET21b plasmid)
Test: Competitive binding assay by fluorescence polarization, assay 2 (compounds prepared by robotics, plates frozen and thawed)
Procedure: The first 177 amino acids of the FimH protein were expressed as a fusion protein with thrombin in a pET21b plasmid in bacteria. This FimH protein sequence contains the carbohydrate recognition domain (CRD) and shall be termed FimH-CRD. Following bacterial expression of the protein, the FimH-CRD protein was purified to homogeneity and the thrombin tag removed by protease cleavage. A competitive binding assay by fluorescence polarization was performed using 5 nM of the Alexa 647 mannoside probe and 60 nM of the FimH-CRD. The samples are assayed in a low volume 384 well microtiter plate in a final volume of 20 μl. The final assay buffer conditions are the following, 50 mM Tris-Cl, ph 7.0, 100 mM NaCl, 1 mM EDTA, 5 mM β-mercaptoethanol, 0.05% BSA and 2.5% DMSO. Two assays are performed for FimH, termed assay 1 or assay 2. The assay conditions are the same for both assays except the following: assay 1 has compounds prepared by manual dilution in a serial dilution factor with 12-point dose response while assay 2 has compounds prepared by a robotics system also through a serial dilution factor (12 point dose response) and initially prepared in duplicate in 384 well-Corning polypropylene round bottom plates. The assay 2 plates have compound which is then frozen and must be thawed prior to use. Initially the Alexa 647 probe and the FimH-CRD are added to the assay buffer and then 0.5 μl of test compound (assay 1 or 2) between 0.4 nM to 75 μM final concentration are added (12 point titration with 3-fold serial dilution). Control wells for the Alexa 647 probe are prepared with the same conditions except for the addition of the FimH-CRD protein. Plates are then incubated for 5 hrs at room temperature in the dark and under humid conditions to prevent drying. Plates are read using the SpectraMax Paradigm multi-mode plate reader and the appropriate fluorescent polarization detection cartridge (Alexa-647).
Alexa 647 mannoside probe is prepared using the similar procedure reported for FAM mannoside (Han, Z. et. al., 2010, J. Med. Chem., 53, 4779) and is described in the scheme below.
To a blue colored stirred solution of (2S,3S,4S,5S,6R)-2-(4-aminobutoxy)-6-(hydroxymethyl)tetrahydropyran-3,4,5-triol (2.21 mg, 0.009 mmol) and the (2E)-2-[(2E,4E)-5-[3,3-dimethyl-5-sulfonato-1-(3-sulfonatopropyl)indol-1-ium-2-yl]penta-2,4-dienylidene]-3-[6-(2,5-dioxopyrrolidin-1-yl)oxy-6-oxo-hexyl]-3-methyl-1-(3-sulfonatopropyl)indoline-5-sulfonate (Potassium Ion (3)) (4.9 mg, 0.0044 mmol) in DMF (44 μL) is added Et3N (5.4 mg, 7.0 μL, 0.053 mmol) at RT. The solution is stirred at room temperature over night, concentrated, dissolved in water and purified on 12 g C-18 silica gel cartridge on Isolera system using acetonitrile in water (0 to 40%, 10 CV) and followed by lyophilization to afford Alexa 647 mannoside probe (3.3 mg, 34%) as deep blue solid.
The Kd values of the compounds are determined from dose response curves using twelve concentrations per compound in duplicate. Curves are fitted to data points using Fluorescence Polarization competitive displacement analysis, and Kds are interpolated from the resulting curves using GraphPad Prism software, version […] (GraphPad software Inc., San Diego, Calif., USA).

T1 sequence (P08191 22-177): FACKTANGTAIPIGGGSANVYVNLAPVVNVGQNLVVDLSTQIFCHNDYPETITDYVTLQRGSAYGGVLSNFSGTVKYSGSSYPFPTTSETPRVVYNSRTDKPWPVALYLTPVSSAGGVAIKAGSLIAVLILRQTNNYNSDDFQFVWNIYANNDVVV

Structure (SMILES)	Kd [nM]
CNC(=O)c1cc(C#Cc2cccc([C@H]3O[C@H](CO)[C@@H](O)[C@H](O)[C@@H]3O)c2)cc(C(=O)NC)c1 [Compound 85, N1,N3-Dimethyl-5-[2-[3-[(2R,3S,4R,5S,6R)-3,4,5-trihydroxy-6-(hydroxymethyl)tetrahydropyran-2-yl]phenyl]ethynyl]benzene-1,3-dicarboxamide]	< 5
COC(=O)c1cccc(C#Cc2cccc([C@H]3O[C@H](CO)[C@@H](O)[C@H](O)[C@@H]3O)c2)c1 [Compound 86, Methyl 3-[2-[3-[(2R,3S,4R,5S,6R)-3,4,5-trihydroxy-6-(hydroxymethyl)tetrahydropyran-2-yl]phenyl]ethynyl]benzoate]	23.7 ± 10.8
COC(=O)c1ccc(C#Cc2cccc([C@H]3O[C@H](CO)[C@@H](O)[C@H](O)[C@@H]3O)c2)cc1 [Compound 87, Methyl 4-[2-[3-[(2R,3S,4R,5S,6R)-3,4,5-trihydroxy-6-(hydroxymethyl)tetrahydropyran-2-yl]phenyl]ethynyl]benzoate]	6.8 ± 0.2
COC(=O)c1cccc(C#Cc2ccc([C@H]3O[C@H](CO)[C@@H](O)[C@H](O)[C@@H]3O)cc2)c1 [Compound 88, Methyl 3-[2-[4-[(2R,3S,4R,5S,6R)-3,4,5-trihydroxy-6-(hydroxymethyl)tetrahydropyran-2-yl]phenyl]ethynyl]benzoate]	11.8 ± 7.9
COC(=O)c1ccc(C#Cc2ccc([C@H]3O[C@H](CO)[C@@H](O)[C@H](O)[C@@H]3O)cc2)cc1 [Compound 89, Methyl 4-[2-[4-[(2R,3S,4R,5S,6R)-3,4,5-trihydroxy-6-(hydroxymethyl)tetrahydropyran-2-yl]phenyl]ethynyl]benzoate]	14.5 ± 2.2
CNC(=O)c1cc(C#Cc2cccc([C@H]3O[C@H](CO)[C@@H](O)[C@H](O)[C@@H]3O)c2C)cc(C(=O)NC)c1 [Compound 90, N1,N3-Dimethyl-5-[2-[2-methyl-3-[(2R,3S,4R,5S,6R)-3,4,5-trihydroxy-6-(hydroxymethyl)tetrahydropyran-2-yl]phenyl]ethynyl]benzene-1,3-dicarboxamide]	20.3 ± 2.2
OC[C@H]1O[C@H](c2cccc(C#Cc3ccccc3)c2)[C@@H](O)[C@@H](O)[C@@H]1O [Compound 91, (2R,3S,4R,5S,6R)-2-(Hydroxymethyl)-6-[3-(2-phenylethynyl)phenyl]tetrahydropyran-3,4,5-triol]	23.6 ± 8.7
CNC(=O)c1cccc(C#Cc2cccc([C@H]3O[C@H](CO)[C@@H](O)[C@H](O)[C@@H]3O)c2)c1 [Compound 93, N-Methyl-3-[2-[3-[(2R,3S,4R,5S,6R)-3,4,5-trihydroxy-6-(hydroxymethyl)tetrahydropyran-2-yl]phenyl]ethynyl]benzamide]	7.5 ± 2.5
CNC(=O)c1cc(/C=C/Cc2cccc([C@H]3O[C@H](CO)[C@@H](O)[C@H](O)[C@@H]3O)c2)cc(C(=O)NC)c1 [Compound 94, N1,N3-Dimethyl-5-[(E)-3-[3-[(2R,3S,4R,5S,6R)-3,4,5-trihydroxy-6-(hydroxymethyl)tetrahydropyran-2-yl]phenyl]prop-1-enyl]benzene-1,3-dicarboxamide]	94.4 ± 13
OC[C@H]1O[C@H](c2cccc(C/C=C/c3cc(Cl)cc(Cl)c3)c2)[C@@H](O)[C@@H](O)[C@@H]1O [Compound 95, (2R,3S,4R,5S,6R)-2-[3-[(E)-3-(3,5-Dichlorophenyl)allyl]phenyl]-6-(hydroxymethyl)tetrahydropyran-3,4,5-triol]	34 ± 7.8
OC[C@H]1O[C@H](c2cccc(C/C=C/c3ccccc3)c2)[C@@H](O)[C@@H](O)[C@@H]1O [Compound 96, (2R,3S,4R,5S,6R)-2-[3-[(E)-Cinnamyl]phenyl]-6-(hydroxymethyl)tetrahydropyran-3,4,5-triol]	29 ± 2.3
CNC(=O)c1cc(CCCc2cccc([C@H]3O[C@H](CO)[C@@H](O)[C@H](O)[C@@H]3O)c2)cc(C(=O)NC)c1 [Compound 97, N1,N3-Dimethyl-5-[3-[3-[(2R,3S,4R,5S,6R)-3,4,5-trihydroxy-6-(hydroxymethyl)tetrahydropyran-2-yl]phenyl]propyl]benzene-1,3-dicarboxamide]	31.6 ± 17.5
OC[C@H]1O[C@H](c2cccc(CCCc3cc(Cl)cc(Cl)c3)c2)[C@@H](O)[C@@H](O)[C@@H]1O [Compound 98, (2R,3S,4R,5S,6R)-2-[3-[3-(3,5-Dichlorophenyl)propyl]phenyl]-6-(hydroxymethyl)tetrahydropyran-3,4,5-triol]	27.8 ± 2.1
OC[C@H]1O[C@H](c2cccc(CCCc3ccccc3)c2)[C@@H](O)[C@@H](O)[C@@H]1O [Compound 99]	26.4 ± 1.1
COC(=O)c1ccc(CCc2ccc([C@H]3O[C@H](CO)[C@@H](O)[C@H](O)[C@@H]3O)cc2)cc1 [Compound 100, Methyl 4-[2-[4-[(2R,3S,4R,5S,6R)-3,4,5-trihydroxy-6-(hydroxymethyl)tetrahydropyran-2-yl]phenyl]ethyl]benzoate]	12 ± 3.1
COC(=O)c1cccc(CCc2cccc([C@H]3O[C@H](CO)[C@@H](O)[C@H](O)[C@@H]3O)c2)c1 [Compound 101, Methyl 3-[2-[3-[(2R,3S,4R,5S,6R)-3,4,5-trihydroxy-6-(hydroxymethyl)tetrahydropyran-2-yl]phenyl]ethyl]benzoate]	12.9 ± 9.7
OC[C@H]1O[C@H](c2cccc(CCc3ccccc3)c2)[C@@H](O)[C@@H](O)[C@@H]1O [Compound 102, (2R,3S,4R,5S,6R)-2-(Hydroxymethyl)-6-[3-(2-phenylethyl)phenyl]tetrahydropyran-3,4,5-triol]	22 ± 3.4
COC(=O)c1ccc(CCc2cccc([C@H]3O[C@H](CO)[C@@H](O)[C@H](O)[C@@H]3O)c2)cc1 [Compound 103, Methyl 4-[2-[3-[(2R,3S,4R,5S,6R)-3,4,5-trihydroxy-6-(hydroxymethyl)tetrahydropyran-2-yl]phenyl]ethyl]benzoate]	9.7 ± 4.5
Cc1nnc(-c2ccc(-c3cccc([C@H]4O[C@H](CO)[C@@H](O)[C@H](O)[C@@H]4O)c3C)cc2)o1 [Compound 104, (2R,3S,4R,5S,6R)-2-(Hydroxymethyl)-6-[2-methyl-3-[4-(5-methyl-1,3,4-oxadiazol-2-yl)phenyl]phenyl]tetrahydropyran-3,4,5-triol]	8.5 ± 3.1
CCc1c(-c2ccc(-c3nnc(C)o3)cc2)cccc1[C@H]1O[C@H](CO)[C@@H](O)[C@H](O)[C@@H]1O [Compound 105, (2R,3S,4R,5S,6R)-2-[2-Ethyl-3-[4-(5-methyl-1,3,4-oxadiazol-2-yl)phenyl]phenyl]-6-(hydroxymethyl)tetrahydropyran-3,4,5-triol]	28.1 ± 3.9
Cc1nnc(-c2ccc(-c3cccc([C@H]4O[C@H](CO)[C@@H](O)[C@H](O)[C@@H]4O)c3F)cc2)o1 [Compound 106, (2R,3S,4R,5S,6R)-2-[2-Fluoro-3-[4-(5-methyl-1,3,4-oxadiazol-2-yl)phenyl]phenyl]-6-(hydroxymethyl)tetrahydropyran-3,4,5-triol]	23.4 ± 7.5
COc1cc(-c2nnc(C)o2)ccc1-c1cccc([C@H]2O[C@H](CO)[C@@H](O)[C@H](O)[C@@H]2O)c1C [Compound 107, (2R,3S,4R,5S,6R)-2-(hydroxymethyl)-6-[3-[2-methoxy-4-(5-methyl-1,3,4-oxadiazol-2-yl)phenyl]-2-methyl-phenyl]tetrahydropyran-3,4,5-triol]	9.8 ± 0.6
Cc1c(-c2ccc(-c3ccn(C)n3)cc2)cccc1[C@H]1O[C@H](CO)[C@@H](O)[C@H](O)[C@@H]1O [Compound 108, (2R,3S,4R,5S,6R)-2-(Hydroxymethyl)-6-[2-methyl-3-[4-(1-methylpyrazol-3-yl)phenyl]phenyl]tetrahydropyran-3,4,5-triol]	7.9 ± 2.9
